Data reported in publication PMC7400446, “Antimicrobial and Antifungal Activity of Rare Substituted 1,2,3-Thiaselenazoles and Corresponding Matched Pair 1,2,3-Dithiazoles” (Antibiotics, 2020).
In brackets after ≈: the same amount, converted by molar mass. Entries after “also recorded” stand apart in the source; their conditions may differ.

Tests used:
[1] = tested on: A. baumannii (Strain ATCC 19606, Type strain); test: Antibacterial assay, MIC; type: cell-based, Acinetobacter baumannii; details: for MIC: Acinetobacter baumannii, ATCC19606
Protocol: (§1) All bacteria, S. aureus (Strain ATCC 43300, MRSA), E. coli (Strain ATCC 25922, FDA control strain), K. pneumoniae (Strain ATCC 700603, MDR), A. baumannii (Strain ATCC 19606, Type strain), P. aeruginosa (Strain ATCC 27853, Quality control strain), were cultured in Cation-adjusted Mueller Hinton broth (CAMHB) at 37 °C overnight. A sample of each culture was then diluted 40-fold in fresh broth and incubated at 37 °C for 1.5–3 h. The resultant mid-log phase cultures were diluted (CFU/mL measured by OD600), then added to each well of the compound containing plates, giving a cell density of 5 × 10^5 CFU/mL and a total volume of 50 μL. All the plates were covered and incubated at 37 °C for 18 h without shaking.
(§2) Analysis: Inhibition of bacterial growth was determined measuring absorbance at 600 nm (OD600), using a Tecan M1000 Pro monochromator plate reader. The percentage of growth inhibition was calculated for each well, using the negative control (media only) and positive control (bacteria without inhibitors) on the same plate as references. […]

[2] = tested on: S. aureus (Strain ATCC 43300, MRSA); test: Antibacterial assay, MIC; type: cell-based, Staphylococcus aureus; details: for MIC: Staphylococcus aureus
Protocol: as §1, §2

[3] = tested on: C. albicans (Strain ATCC 90028, CLSI reference); test: Antifungal assay, MIC; type: cell-based, Candida albicans; details: for MIC: Candida albicans, ATCC90028
Protocol: (§3) Fungi strains C. albicans (Strain ATCC 90028, CLSI reference) and C. neoformans (Strain ATCC 208821, H99 Type strain), were cultured for 3 days on Yeast Extract-Peptone Dextrose (YPD) agar at 30 °C. A yeast suspension of 1 × 10^6 to 5 × 10^6 CFU/mL (as determined by OD530) was prepared from five colonies. The suspension was subsequently diluted and added to each well of the compound-containing plates giving a final cell density of fungi suspension of 2.5 × 10^3 CFU/mL and a total volume of 50 μL. All plates were covered and incubated at 35 °C for 36 h without shaking.
(§4) Analysis: Growth inhibition of C. albicans was determined measuring absorbance at 630 nm (OD630), while the growth inhibition of C. neoformans was determined measuring the difference in absorbance between 600 and 570 nm (OD600–570), after the addition of resazurin (0.001% final concentration) and incubation at 35 °C for 2 h. The absorbance was measured using a Biotek Multiflo Synergy HTX plate reader. In both cases, the percentage of growth inhibition was calculated for each well, using the negative control (media only) and positive control (fungi without inhibitors) on the same plate. […] Due to a higher variance in growth and inhibition, a lower threshold was applied to the data for C. neoformans.

[4] = tested on: C. neoformans (Strain ATCC 208821, H99 Type strain); test: Antifungal assay, MIC; type: cell-based, Cryptococcus neoformans var. grubii; details: for MIC: Cryptococcus neoformans, ATCC208821
Protocol: as §3, §4

[5] = Cytotoxicity assay (resazurin); type: cell-based; details: human; HEK293 cells, 20 h; unit not given in Table 1; read-out: CC50 (concentration at 50% cytotoxicity)
Protocol: (§5) HEK293 cells were counted manually in a Neubauer haemocytometer and then plated in the 384-well plates containing the compounds to give a density of 6000 cells/well in a final volume of 50 μL. DMEM supplemented with 10% FBS was used as growth media and the cells were incubated together with the compounds for 20 h at 37 °C in 5% CO2. Analysis: Cytotoxicity (or cell viability) was measured by fluorescence, ex: 560/10 nm, em: 590/10 nm (F560/590), after addition of 5 μL of 25 μgmL^−1 Resazurin (2.3 μgmL^−1 final concentration) and after incubation for further 3h at 37 °C in 5% CO2. The fluorescence intensity was measured using a Tecan M1000 Pro monochromator plate reader, using automatic gain calculation CC50 (concentration at 50% cytotoxicity) were calculated by curve fitting the inhibition values vs. log(concentration) using sigmoidal dose-response function, with variable fitting values for bottom, top and slope.

[6] = tested on: haemolytic activity; test: Haemolysis assay; type: cell-based; details: for Hc10 (concentration at 10% haemolytic activity): unit not given
Protocol: Hc10 (concentration at 10% haemolytic activity) was calculated by curve fitting the inhibition values vs. log(concentration) using a Sigmoidal dose-response function, with variable values for bottom, top and slope. The curve fitting is implemented using Pipeline Pilot’s dose-response component (giving similar results to similar tools such as GraphPad’s Prism and IDBS’s XlFit). […] DMax represents the highest percentage inhibition response for all concentrations tested. […] In addition, the value indicates if samples have been active, but curve fitting failed, mostly because only the single highest concentration was active.

[7] = tested on: Staphylococcus aureus, Acinetobacter baumannii, Candida albicans and Cryptococcus neoformans var. grubii; test: Initial antimicrobial screen (CO-ADD); type: cell-based; details: 10 μM; Active / Inactive
Text: We then screened this series of 1,2,3-dithiazoles and 1,2,3-thiaselenazoles (8−15) against Staphylococcus aureus, Acinetobacter baumannii, Candida albicans and Cryptococcus neoformans var. grubii (Table 1) as part of the Community for Antimicrobial Drug Discovery (CO-ADD) initiative to develop new lead compounds [51]. These represent three distinct classes of microbes. Staphylococcus aureus (ATCC 43300) is a gram-positive bacterium derived from the super bug methicillin-resistant Staphylococcus aureus (MRSA). Acinetobacter baumannii (ATCC 19606) is a gram-negative bacterium hospital-derived infection with very few antibiotics that can treat this pathogen. Candida albicans (ATCC 90028) and Cryptococcus neoformans var. grubii (ATCC 208821) are both opportunistic fungi. These fungal pathogens are particularly dangerous for patients in hospital with immunodeficiencies, undergoing cancer chemotherapy and organ transplantation. These strains are considered by the World Health Organization (WHO) to be the highest priority to develop novel antibiotics for control of these bacteria and fungi. These are some of the most difficult to treat, particularly in a hospital setting where sepsis and pneumonia can quickly overcome the body’s immune system.
The 1,2,3-thiaselenazole analog (13) was potent on against three of the four pathogens with a similar profile to 9a without the activity on A. baumannii.
Antimicrobial screening was performed by CO-ADD (The Community for Antimicrobial Drug Discovery), Australia.
as §1, §2
as §3, with “shaking. […]” for “shaking.”

[8] = tested on: HEK293 cells; test: Cytotoxicity assay (resazurin); type: cell-based
Protocol: as §5

[9] = ATCC 19606, MIC = lowest concentration with inhibition ≥80%
[10] = ATCC 43300 (MRSA), MIC = lowest concentration with inhibition ≥80%
[11] = ATCC 208821, inhibition ≥70% (method)

| Compound | MIC [1, 9] [µg/mL] | MIC [2, 10] [µg/mL] | MIC ([3]; ATCC 90028, inhibition ≥80%) [µg/mL] | MIC [4, 11] [µg/mL] | CC50 at 20 h [5] [µg/mL] | Hc10 (concentration at 10% haemolytic activity) [6] | melting point [°C] | Initial Screen [7] | other results |
| --- | --- | --- | --- | --- | --- | --- | --- | --- | --- |
| ClC1=C2S[Se]N=C2c2ccccc2C(Cl)=C1Cl [Compound 13, 4,5,6-Trichlorobenzo[6,7]cyclohepta[1,2-d][1,2,3]thiaselenazole] | > 32 | ≤ 0.25 | ≤ 0.25 | ≤ 0.25 | 0.48 (≈ 1.31 µM) | >32 | 144 to 145 | – | – |
| ClC1=C2SSN=C2c2ccccc2C(Cl)=C1Cl [Compound 12, 4,5,6-Trichlorobenzo[6,7]cyclohepta[1,2-d][1,2,3]dithiazole] | – | – | – | – | – | – | 119 to 121 | Inactive | – |
| N#Cc1c2nssc-2c(Cl)c1Cl [Compound 10b, 5,6-Dichlorocyclopenta[1,2,3]dithiazole-4-carbonitrile] | > 32 | > 32 | ≤ 0.25 | ≤ 0.25 | > 32 | >32 | 217 to 219 | – | Activity against A. baumannii (in words) [1]: removed all activity; Activity against S. aureus (in words) [2]: removed all activity; Activity against C. albicans (in words) [3]: maintained activity; Activity against C. neoformans (in words) [4]: maintained activity; Toxicity (in words) [8]: no toxicity |
| N#Cc1c2n[se]sc-2c(Cl)c1Cl [Compound 11b, 5,6-Dichlorocyclopenta[d][1,2,3]thiaselenazole-4-carbonitrile] | > 32 | ≤ 0.25 | ≤ 0.25 | ≤ 0.25 | > 32 | >32 | 171 to 173 | – | Activity against S. aureus (in words) [2]: potent |
| CCOC(=O)c1c2nssc-2c(Cl)c1Cl [Compound 10c, Ethyl 5,6-dichlorocyclopenta[d][1,2,3]dithiazole-4-carboxylate] | > 32 | > 32 | ≤ 0.25 | > 32 | > 32 | >32 | 80 to 82 | – | Activity against C. albicans (in words) [3]: selective for C. albicans; Toxicity (in words) [8]: no toxicity |
| c1ccc2c(c1)N=C1SSN=C1O2 [Compound 14, Benzo[b][1,2,3]dithiazolo[5,4-e][1,4]oxazine] | – | – | – | – | – | – | 182 to 184 | not fruitful; also recorded: Inactive | – |
| 8-Phenylindeno[1,2-d][1,2,3]thiaselenazole [Compound 9b] | – | – | – | – | – | – | – | Inactive | – |
| Clc1c2nssc-2c(Cl)c1Cl [Compound 10a, 4,5,6-Trichlorocyclopenta[d][1,2,3]dithiazole] | – | – | – | – | – | – | 122 to 124 | Inactive | – |
| 8-Chloroindeno[1,2-d][1,2,3]thiaselenazole [Compound 9a] | – | – | – | – | – | >32 | – | – | Antibacterial A. baumannii MIC [1, 9]: >32 µg/mL; Antibacterial S. aureus MIC [2, 10]: >32 µg/mL; Antifungal C. albicans MIC ([3]; ATCC 90028, inhibition ≥80%): ≤0.25 µg/mL; Antifungal C. neoformans MIC [4, 11]: ≤0.25 µg/mL; CC50 (concentration at 50% cytotoxicity) ([8]; 20 h, unit not given in Table 1): >32 µM |
| CCOC(=O)c1c2n[se]sc-2c(Cl)c1Cl [Compound 11c, Ethyl 5,6-dichlorocyclopenta[d][1,2,3]thiaselenazole-4-carboxylate] | > 32 | ≤ 0.25 | ≤ 0.25 | ≤ 0.25 | 7 (≈ 21.3 µM) | >32 | 188 to 190 | – | Haemolysis (in words) [6]: no haemolysis |
| Clc1c2n[se]sc-2c(Cl)c1Cl [Compound 11a, 4,5,6-Trichlorocyclopenta[d][1,2,3]thiaselenazole] | ≤ 0.25 | ≤ 0.25 | ≤ 0.25 | ≤ 0.25 | 0.52 (≈ 1.78 µM) | >32 | 117 to 119 | – | Activity against A. baumannii (in words) [1]: very potent; Activity against S. aureus (in words) [2]: very potent; Activity against C. albicans (in words) [3]: very potent; Activity against C. neoformans (in words) [4]: very potent; Haemolysis (in words) [6]: no haemolysis |
